Assay results: ChEMBL document CHEMBL1158574, “Trichodermaketones A-D and 7-O-methylkoninginin D from the marine fungus Trichoderma koningii” (2010)

What follows are compounds tested on Staphylococcus aureus (assay: Antibacterial activity against methicillin-resistant Staphylococcus aureus clinical isolate measured after overnight incubation at 37 degC).
Type: functional
In the case of `CCCCCC[C@@H]1O[C@@H]2C3=C(O[C@@H]2[C@@H]1O)[C@H](O)CCC3=O` [TRICHODERMAKETONE A], the MIC is reported as over 100 µg/mL.
`CCCCCC/C=C/[C@H]1CC2=C(O1)[C@H](O)CCC2=O` [TRICHODERMAKETONE D] gave an MIC of over 100 µg/mL.
For `CCCCCC/C=C/[C@@H]1CC2=C(O1)[C@H](O)CCC2=O` [TRICHODERMAKETONE C], the MIC was over 100 µg/mL.
`CCCCCC[C@H]1O[C@H]2C3=C(O[C@H]2[C@H]1O)[C@H](O)CCC3=O` [TRICHODERMAKETONE B] was tested, and the MIC was over 100 µg/mL.
With `CCCCCC[C@H](O)[C@@H]1C[C@@H](OC)C2=C(O1)[C@H](O)CCC2=O` the MIC was over 100 µg/mL.

Each compound was assayed on Candida albicans (assay: Antimicrobial activity against Candida albicans SC5314 measured after overnight incubation at 35 degC by broth microdilution assay).
Type: functional
Compound `CCCCCC[C@@H]1O[C@@H]2C3=C(O[C@@H]2[C@@H]1O)[C@H](O)CCC3=O` [TRICHODERMAKETONE A] has an MIC of over 125 µg/mL.
